Test [1] has as its target T1, CDK2-NanoLuc fusion with CCNE1 in 293T or 293 cells (Homo sapiens, UniProt P24941).
T1 construct: host or cells: 293T (ATCC CRL-3216) or 293 (ATCC CRL-1573)
Description: NanoBRET Target Engagement (TE) Intracellular Kinase Assay, CDK2/CCNE1. In kind it is cell-based. Particulars: 2-hour incubation. In general terms: BRET reads energy transfer from a luciferase to a nearby fluorophore.

For test [2], the system named is Phospho-Rb Ser807/811 in OVCAR3 cells. Nature of the test: OVCAR3 Phospho-Rb Ser807/811 HTRF assay. In kind it is cell-based. The following applies: Homo sapiens, OVCAR-3, 1 h, OVCAR3 cells, Phospho-Rb Ser807/811 HTRF, 1 hour incubation; read-out: pRb-OVCAR3 IC50. How it is done: Cells were trypsinized and resuspended in 1 mM hydroxyurea (Sigma; H8627), 90% RPMI and 10% fetal bovine serum. […] Dose response curve normalized to DMSO control was plotted using four-parameter logistic model for IC50 calculation.

Test [3] addresses T2, CDK4-NanoLuc fusion with CCND1 in 293T or 293 cells (Homo sapiens, UniProt P11802).
T2 construct: host or cells: 293T (ATCC CRL-3216) or 293 (ATCC CRL-1573)
Description: NanoBRET Target Engagement (TE) Intracellular Kinase Assay, CDK4/CCND1. In kind it is cell-based. The following applies: NanoBRET TE intracellular kinase assay, 2-hour incubation, read-out: NanoBRET-CDK4/D1 IC50.

Another test addresses pCDK2-CCNE1 proteins (Homo sapiens, UniProt P24941). Nature of the test: Identification of covalent binding by intact mass spectrometry, with and without competitor PF-06873600. Particulars: for Covalent complex formation with CDK2 protein (intact mass spectra after sodium borohydride reduction) / Binding pocket by competition: complex formation in presence of molar excess PF-06873600: pCDK2-CCNE1 1 μM, compound 1.5 μM; for Covalent complex formation with CDK2 protein (intact mass spectra after sodium borohydride reduction): 1 hour at room temperature or 37° C., no competitor; for Observed mass value of the covalent complex between compound and CDK2 protein: intact mass spectrometry after borohydride reduction, unmodified CDK2 34096-34097 Da; for Binding pocket by competition: complex formation in presence of molar excess PF-06873600: competitor PF-06873600 20 μM. How it is done: pCDK2-CCNE1 proteins (1 μM) were treated with a compound (1.5 μM) from Table 4 for 1 hour at room temperature or 37° C., with and without competitor molecule PF-06873600 (20 μM final concentration) as a specificity control. As used herein, the competitor molecule is
As used herein, the competitor molecule is 6-(difluoromethyl)-8-((1R,2R)-2-hydroxy-2-methylcyclopentyl)-2-((1-(methylsulfonyl)piperidin-4-yl)amino)pyrido[2,3-d]pyrimidin-7(8H)-one (PF-06873600). Reversible imines were captured by reductive amination with the addition of 5 mM sodium borohydride at room temperature for 5 min. Reduction reactions were quenched by diluting the sample in equal volume of 1% trifluoroacetic acid (v/v) in acetonitrile, then analyzed by LC-MS. Deconvoluted monoisotopic intensities of unmodified and compound-modified mass peaks were compared.
FIGS. 1A to 1P provide intact mass spectra for pCDK2-CCNE1 proteins after incubation with compounds of the present disclosure and subsequent sodium borohydride reduction. […] Further, FIGS. 1A to 1P each provide intact mass spectra following the incubation of pCDK2-CCNE1 proteins with a compound of the present disclosure both in the absence of a competitor molecule (i.e., PF-06873600, a molecule known to bind to and inhibit the function of CDK2); and in the presence of a significant stoichiometric excess of a competitor molecule PF-06873600.
FIGS. 2A to 2N provide intact mass spectra for pCDK2-CCNE1 proteins after incubation with compounds of the present disclosure and subsequent sodium borohydride reduction.

Test [4] has as its target T3, CDK1-NanoLuc fusion with CCNB1 in 293T or 293 cells (Homo sapiens, UniProt P06493).
T3 construct: host or cells: 293T (ATCC CRL-3216) or 293 (ATCC CRL-1573)
Nature of the test: NanoBRET Target Engagement (TE) Intracellular Kinase Assay, CDK1/CCNB1. In kind it is cell-based. Particulars: NanoBRET TE intracellular kinase assay, 2-hour incubation, read-out: NanoBRET-CDK1/B1 IC50. A digest of the protocol:
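293T or 293 cells co-transfected with CDK1-NanoLuc and CCNB1 vectors, incubated 24 h, then exposed to NanoBRET Tracer K-10 plus compound for 2 h at 37° C. BRET ratio (610/450 nm) normalized to DMSO; IC50 from four-parameter logistic fit.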

The mark [5] stands for this setting: NanoBRET TE intracellular kinase assay, read-out: NanoBRET-CDK2/E1 IC50.

The values below come from patent US20250289789A1, “REVERSIBLE LYSINE COVALENT MODIFIERS OF CDK2 AND USES THEREOF” (Terremoto Biosciences, Inc., priority 2023, published 2025).

Several values for one entry are separate records, joined by “and”; a condition that tells them apart may be missing. Equal values may be shown once. Read-outs that look alike come from different tables or passages of the source.

T3 sequence (P06493 whole entry, the tested form may be a part): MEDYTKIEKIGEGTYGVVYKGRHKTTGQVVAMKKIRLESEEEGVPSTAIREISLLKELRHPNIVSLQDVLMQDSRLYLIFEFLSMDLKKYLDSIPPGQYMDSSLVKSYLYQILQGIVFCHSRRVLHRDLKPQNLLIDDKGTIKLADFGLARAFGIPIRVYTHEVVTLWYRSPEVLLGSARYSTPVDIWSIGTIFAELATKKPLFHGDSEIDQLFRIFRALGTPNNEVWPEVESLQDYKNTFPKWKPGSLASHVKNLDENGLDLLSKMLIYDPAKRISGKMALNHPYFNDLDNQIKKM
T3 sequence (P14635 whole entry partner, the tested form may be a part): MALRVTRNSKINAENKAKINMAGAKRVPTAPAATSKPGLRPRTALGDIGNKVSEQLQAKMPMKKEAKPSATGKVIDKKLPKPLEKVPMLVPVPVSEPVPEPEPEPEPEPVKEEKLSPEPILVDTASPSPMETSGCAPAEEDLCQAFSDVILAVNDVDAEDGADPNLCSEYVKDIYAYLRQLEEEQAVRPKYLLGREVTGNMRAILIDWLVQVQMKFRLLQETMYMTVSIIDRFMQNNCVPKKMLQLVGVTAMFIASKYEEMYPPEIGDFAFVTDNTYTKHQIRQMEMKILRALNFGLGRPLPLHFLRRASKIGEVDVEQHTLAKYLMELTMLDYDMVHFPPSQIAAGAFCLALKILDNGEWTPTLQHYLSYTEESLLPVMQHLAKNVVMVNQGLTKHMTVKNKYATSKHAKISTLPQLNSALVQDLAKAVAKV
T2 sequence (P11802 whole entry, the tested form may be a part): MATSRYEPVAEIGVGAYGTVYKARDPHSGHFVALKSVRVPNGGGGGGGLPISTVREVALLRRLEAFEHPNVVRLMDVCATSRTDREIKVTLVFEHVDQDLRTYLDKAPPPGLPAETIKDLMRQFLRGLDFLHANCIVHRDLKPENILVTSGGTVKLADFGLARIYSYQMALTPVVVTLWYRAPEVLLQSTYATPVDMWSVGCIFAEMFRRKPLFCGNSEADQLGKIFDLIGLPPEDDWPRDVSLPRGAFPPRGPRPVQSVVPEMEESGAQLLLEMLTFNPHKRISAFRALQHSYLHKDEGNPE
T2 sequence (P24385 whole entry partner, the tested form may be a part): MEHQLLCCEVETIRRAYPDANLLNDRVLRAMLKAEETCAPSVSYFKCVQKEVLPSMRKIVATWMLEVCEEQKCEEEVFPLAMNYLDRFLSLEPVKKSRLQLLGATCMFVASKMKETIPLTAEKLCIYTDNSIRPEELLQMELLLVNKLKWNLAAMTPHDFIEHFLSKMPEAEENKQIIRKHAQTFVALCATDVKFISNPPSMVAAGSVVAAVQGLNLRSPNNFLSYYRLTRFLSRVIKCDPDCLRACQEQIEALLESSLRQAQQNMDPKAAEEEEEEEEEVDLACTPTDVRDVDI

As for `CC(C)NC(=O)O[C@@H]1CC[C@H](c2cc(NC(=O)c3cc(-c4cccc(C=O)c4O)nn3C)n[nH]2)C1` [Compound 18, (1R,3S)-3-{5-[5-(3-formyl-2-hydroxyphenyl)-2-methylpyrazole-3-amido]-2H-pyrazol-3-yl}cyclopentyl N-isopropylcarbamate trifluoroacetic acid], the IC50 in test [1] (setting [5]) worked out at 0.0114 µM; in test [2], 4.64 µM; in test [3], 1.61 µM; in test [4], 0.703 µM. For the same molecule, the “Covalent complex formation with CDK2 protein (intact mass spectra after sodium borohydride reduction)” value on pCDK2-CCNE1 proteins is “resulted in covalent complex formation”.
For the molecule `COc1cc(O)c(C=O)c(CCC(=O)Nc2cc([C@H]3CC[C@@H](OC(=O)NC(C)C)C3)[nH]n2)c1` [Compound 22, (1R,3S)-3-(3-(3-(2-formyl-3-hydroxy-5-methoxyphenyl)propanamido)-1H-pyrazol-5-yl)cyclopentyl isopropylcarbamate 2,2,2-trifluoroacetate], the IC50 in test [1] (setting [5]) worked out at 0.00481 µM; in test [2], 0.2 µM; in test [3], 3.69 µM; in test [4], 0.1 µM. Also, on pCDK2-CCNE1 proteins (2,2,2-trifluoroacetate), the “Observed mass value of the covalent complex between compound and CDK2 protein” value (from here on “Observed mass value”) is 34538-34539 Da and 34539 Da. Further, the “Covalent complex formation with CDK2 protein (intact mass spectra after sodium borohydride reduction)” value at pCDK2-CCNE1 proteins was “formed a covalent complex with CDK2 protein”. Besides, the “Binding pocket by competition: complex formation in presence of molar excess PF-06873600” value (shortened to “Binding pocket by competition”) on pCDK2-CCNE1 proteins was “bound to the same binding pocket of CDK2 as the competitor molecule PF-06873600”.
Regarding `CC(C)NC(=O)O[C@@H]1CC[C@H](c2cc(NC(=O)[C@@H](C)Oc3cccc(O)c3C=O)n[nH]2)C1` [Compound 32, (1R,3S)-3-{5-[(2R)-2-(2-formyl-3-hydroxyphenoxy)propanamido]-2H-pyrazol-3-yl}cyclopentyl N-isopropylcarbamate], the IC50 in test [1] (setting [5]) was determined as 0.00466 µM; in test [2] it was 0.352 µM; in test [3], 4.92 µM; in test [4] it was 0.052 µM. The “Observed mass value” value at pCDK2-CCNE1 proteins was found to be 34525 Da. Further, at pCDK2-CCNE1 proteins, the “Covalent complex formation with CDK2 protein (intact mass spectra after sodium borohydride reduction)” value was “formed a covalent complex with CDK2 protein”. Further, the “Binding pocket by competition” value on pCDK2-CCNE1 proteins is recorded as “bound to the same binding pocket of CDK2 as the competitor molecule PF-06873600”.
With `CC(C)NC(=O)O[C@@H]1CC[C@H](c2cc(NC(=O)Nc3ccc(O)c(C=O)c3)n[nH]2)C1` [Compound 33, (1R,3S)-3-(5-{[(3-formyl-4-hydroxyphenyl)carbamoyl]amino}-2H-pyrazol-3-yl)cyclopentyl N-isopropylcarbamate], the IC50 was found to be 0.0113 µM in test [1] (setting [5]), 0.361 µM in test [2], 0.361 µM in test [3] and 0.0716 µM in test [4]. Also, the “Covalent complex formation with CDK2 protein (intact mass spectra after sodium borohydride reduction)” value at pCDK2-CCNE1 proteins is recorded as “resulted in covalent complex formation”.
On to `CC(C)NC(=O)O[C@@H]1CC[C@H](c2cc(NC(=O)c3cc(-c4c(F)ccc(O)c4C=O)nn3C)n[nH]2)C1` [Compound 45, (1R,3S)-3-(3-(3-(6-fluoro-2-formyl-3-hydroxyphenyl)-1-methyl-1H-pyrazole-5-carboxamido)-1H-pyrazol-5-yl)cyclopentyl isopropylcarbamate], for which the IC50 came to 0.0028 µM in test [1] (NanoBRET-CDK2/E1 IC50, NanoBRET TE intracellular kinase assay); 0.114 µM in test [2]; 1.58 µM in test [3]; 0.00681 µM in test [4]. Further, the “Observed mass value” value on pCDK2-CCNE1 proteins stood at 34579 Da.
Consider `CC(=O)Nc1cccc(OCC(=O)Nc2cc([C@H]3CC[C@@H](OC(=O)NC(C)C)C3)[nH]n2)c1C=O` [Compound 46, (1R,3S)-3-{5-[2-(3-acetamido-2-formylphenoxy)acetamido]-2H-pyrazol-3-yl}cyclopentyl N-isopropylcarbamate], for which the IC50 in test [1] (setting [5]) is 0.0206 µM; in test [2], 2.41 µM; in test [3], 4.17 µM; in test [4], 0.692 µM. In addition, the “Covalent complex formation with CDK2 protein (intact mass spectra after sodium borohydride reduction)” value at pCDK2-CCNE1 proteins is recorded as “resulted in covalent complex formation”.
On to `CC(C)NC(=O)O[C@@H]1CC[C@H](c2cc(NC(=O)COc3cccc(NS(C)(=O)=O)c3C=O)n[nH]2)C1` [Compound 49, (1R,3S)-3-{5-[2-(2-formyl-3-methanesulfonamidophenoxy)acetamido]-2H-pyrazol-3-yl}cyclopentyl N-isopropyl carbamate], for which the IC50 in test [1] (setting [5]) was 0.0245 µM; in test [2], 0.161 µM; in test [3], more than 10 µM; in test [4] it was 0.0702 µM. Further, the “Observed mass value” value at pCDK2-CCNE1 proteins stood at 34588 Da.
As for `CNC(=O)O[C@@H]1CC[C@H](c2cc(NC(=O)c3cc(-c4cccc(O)c4C=O)nn3C)n[nH]2)C1` [Compound 50, (1R,3S)-3-{5-[5-(2-formyl-3-hydroxyphenyl)-2-methylpyrazole-3-amido]-2H-pyrazol-3-yl}cyclopentyl N-methylcarbamate; trifluoroacetic acid], the IC50 in test [1] (setting [5]) is 0.00863 µM; in test [2], 0.382 µM; in test [3], more than 10 µM; in test [4], 0.0497 µM. For the same molecule, the “Covalent complex formation with CDK2 protein (intact mass spectra after sodium borohydride reduction)” value at pCDK2-CCNE1 proteins is reported as “resulted in covalent complex formation”.
`C#Cc1cccc(OCC(=O)Nc2cc([C@H]3CC[C@@H](OC(=O)NC(C)C)C3)[nH]n2)c1C=O` [Compound 51, (1R,3S)-3-(3-(2-(3-ethynyl-2-formylphenoxy)acetamido)-1H-pyrazol-5-yl)cyclopentyl isopropylcarbamate]: the IC50 stood at 0.00758 µM in test [1] (setting [5]), 1.15 µM in test [2], 4.1 µM in test [3] and 0.354 µM in test [4]. Also, the “Observed mass value” value at pCDK2-CCNE1 proteins was determined as 34519 Da. The “Covalent complex formation with CDK2 protein (intact mass spectra after sodium borohydride reduction)” value on pCDK2-CCNE1 proteins is recorded as “formed a covalent complex with CDK2 protein”. The “Binding pocket by competition” value at pCDK2-CCNE1 proteins is listed as “bound to the same binding pocket of CDK2 as the competitor molecule PF-06873600”.
As for `C#Cc1cccc(-c2cc(C(=O)Nc3cc([C@H]4CC[C@@H](OC(=O)NC(C)C)C4)[nH]n3)n(C)n2)c1C=O` [Compound 52, (1R,3S)-3-(3-(3-(3-ethynyl-2-formylphenyl)-1-methyl-1H-pyrazole-5-carboxamido)-1H-pyrazol-5-yl)cyclopentyl isopropylcarbamate], the IC50 in test [1] (setting [5]) is 0.0217 µM; in test [2] it was 2.43 µM; in test [3], 0.543 µM; in test [4] it was 0.383 µM. The “Covalent complex formation with CDK2 protein (intact mass spectra after sodium borohydride reduction)” value at pCDK2-CCNE1 proteins was “resulted in covalent complex formation”.
Turning to `COc1cc(O)c(C=O)c(OCC(=O)Nc2cc([C@H]3CC[C@@H](OC(=O)NC(C)C)C3)[nH]n2)c1` [Compound 64, (1R,3S)-3-{5-[2-(2-formyl-3-hydroxy-5-methoxyphenoxy)acetamido]-2H-pyrazol-3-yl}cyclopentyl N-isopropylcarbamate], the IC50 in test [1] (setting [5]) is 0.00276 µM; in test [2], 0.0332 µM; in test [3], more than 6.43 µM; in test [4], 0.00952 µM. Also, the “Observed mass value” value on pCDK2-CCNE1 proteins was found to be 34539 Da. Besides, the “Covalent complex formation with CDK2 protein (intact mass spectra after sodium borohydride reduction)” value on pCDK2-CCNE1 proteins is reported as “resulted in covalent complex formation”.
